Laboratory results published in patent publication USRE39591E1, “6-O-substituted ketolides having antibacterial activity” (Abbott Laboratories, priority 1996, dated 2007).
Values after ≈ are worked out from the molar mass of the structure shown.

System: up to 32 different microorganisms
Experiment: in vitro antibacterial activity (MIC), agar dilution on Brain Heart Infusion (BHI) agar with Steers replicator
Assay type: cell-based
Conditions: unit assumed
Method in brief: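 Agar dilution, 12 plates/compound; inoc 1:100 (1:10 Micrococcus, Streptococcus); 35°-37° C, 20–24 h. Erythromycin A reference plate plus drug-free growth controls at start and end. Endpoint = no growth/slight haze/sparse colonies.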

SMILES: CCC1OC(=O)C(C)C(=O)C(C)C(OC2OC(C)CC(N(C)C)C2O)C(C)(OCC=Cc2ccc3ccccc3n2)CC(C)C(=O)C(C)C2NC(=O)OC12C (stereo not shown) [Example 212, R is —CH2CH═CH-(2-quinolyl)]
- MIC (organism code AA): 0.39 µg/mL (≈ 0.509 µM)
- MIC (organism code BB): 0.39 µg/mL (≈ 0.509 µM)
- MIC (organism code CC): > 100 µg/mL
- MIC (organism code DD): 0.39 µg/mL (≈ 0.509 µM)
- MIC (organism code EE): 0.39 µg/mL (≈ 0.509 µM)
- MIC (organism code FF): 0.39 µg/mL (≈ 0.509 µM)
- MIC (organism code GG): > 100 µg/mL
- MIC (organism code HH): 0.39 µg/mL (≈ 0.509 µM)
- MIC (organism code II): 0.1 µg/mL (≈ 0.131 µM)
- MIC (organism code JJ): ≤ 0.005 µg/mL
- MIC (organism code KK): 0.1 µg/mL (≈ 0.131 µM)
- MIC (organism code LL): 0.05 µg/mL (≈ 0.0653 µM)
- MIC (organism code MM): 25 µg/mL (≈ 32.6 µM)
- MIC (organism code NN): 0.39 µg/mL (≈ 0.509 µM)
- MIC (organism code OO): 0.05 µg/mL (≈ 0.0653 µM)
- MIC (organism code PP): 0.39 µg/mL (≈ 0.509 µM)
- MIC (organism code QQ): > 100 µg/mL
- MIC (organism code RR): 0.39 µg/mL (≈ 0.509 µM)
- MIC (organism code SS): > 100 µg/mL
- MIC (organism code TT): > 100 µg/mL
- MIC (organism code UU): 0.78 µg/mL (≈ 1.02 µM)
- MIC (organism code VV): 0.2 µg/mL (≈ 0.261 µM)
- MIC (organism code WW): 8 µg/mL (≈ 10.4 µM)
- MIC (organism code XX): 0.125 µg/mL (≈ 0.163 µM)
- MIC (organism code YY): 0.25 µg/mL (≈ 0.326 µM)
- MIC (organism code ZZ): 128 µg/mL (≈ 167 µM)
- MIC (organism code ZZA): 1 µg/mL (≈ 1.31 µM)

SMILES: CCC1OC(=O)C(C)C(=O)C(C)C(OC2OC(C)CC(N(C)C)C2O)C(C)(OCC=Cc2cnc3ccc(OC)cc3c2)CC(C)C(=O)C(C)C2NC(=O)OC12C (stereo not shown) [Example 209, R is —CH2CH═CH-(6-methoxy-3-quinolyl)]
- MIC (organism code AA): 0.05 µg/mL (≈ 0.0628 µM)
- MIC (organism code CC): > 100 µg/mL
- MIC (organism code DD): 0.1 µg/mL (≈ 0.126 µM)
- MIC (organism code EE): 0.1 µg/mL (≈ 0.126 µM)
- MIC (organism code FF): 0.1 µg/mL (≈ 0.126 µM)
- MIC (organism code GG): > 100 µg/mL
- MIC (organism code HH): 0.1 µg/mL (≈ 0.126 µM)
- MIC (organism code II): 0.02 µg/mL (≈ 0.0251 µM)
- MIC (organism code JJ): 0.01 µg/mL (≈ 0.0126 µM)
- MIC (organism code KK): 0.01 µg/mL (≈ 0.0126 µM)
- MIC (organism code LL): 0.01 µg/mL (≈ 0.0126 µM)
- MIC (organism code MM): 3.1 µg/mL (≈ 3.89 µM)
- MIC (organism code NN): 0.1 µg/mL (≈ 0.126 µM)
- MIC (organism code OO): 0.01 µg/mL (≈ 0.0126 µM)
- MIC (organism code PP): 0.2 µg/mL (≈ 0.251 µM)
- MIC (organism code QQ): 100 µg/mL (≈ 126 µM)
- MIC (organism code RR): 0.2 µg/mL (≈ 0.251 µM)
- MIC (organism code SS): > 100 µg/mL
- MIC (organism code TT): > 100 µg/mL
- MIC (organism code UU): 0.78 µg/mL (≈ 0.98 µM)
- MIC (organism code VV): 0.02 µg/mL (≈ 0.0251 µM)
- MIC (organism code WW): 2 µg/mL (≈ 2.51 µM)
- MIC (organism code XX): 0.03 µg/mL (≈ 0.0377 µM)
- MIC (organism code YY): 0.03 µg/mL (≈ 0.0377 µM)
- MIC (organism code ZZ): 4 µg/mL (≈ 5.03 µM)
- MIC (organism code ZZA): 0.5 µg/mL (≈ 0.628 µM)

SMILES: CC[C@H]1OC(=O)[C@H](C)C(=O)[C@H](C)[C@@H](O[C@@H]2O[C@H](C)C[C@H](N(C)C)[C@H]2O)[C@@](C)(OCC=Cc2ccc(F)cc2)C[C@@H](C)C(=O)[C@H](C)[C@@H](O)[C@]1(C)O [Example 174, Compound of Formula (VIII): X is O, R is CH2—CH═CH-(4-fluorophenyl)]
- MIC (Candida albicans CCH 442 (code TT)): > 100 µg/mL
- MIC (Enterococcus faecism ATCC 8043 (code II)): 3.1 µg/mL
- MIC (Escherichia coli DC-2 (code SS)): > 100 µg/mL
- MIC (Escherichia coli JUHL (code QQ)): > 100 µg/mL
- MIC (Escherichia coli SS (code RR)): 12.5 µg/mL
- MIC (Haemophilis influenzae DILL AMP R (code WW)): 128 µg/mL
- MIC (Micrococcus luteus ATCC 4698 (code PP)): 0.78 µg/mL
- MIC (Micrococcus luteus ATCC 9341 (code OO)): 0.39 µg/mL
- MIC (Mycobacterium smegmatis ATCC 114 (code UU)): 3.1 µg/mL
- MIC (Nocardia Asteroides ATCC9970 (code VV)): 0.78 µg/mL
- MIC (Staphylococcus aureus 1775 (code GG)): > 100 µg/mL
- MIC (Staphylococcus aureus A5177 (code BB)): 3.1 µg/mL
- MIC (Staphylococcus aureus A-5278 (code CC)): > 100 µg/mL
- MIC (Staphylococcus aureus ATCC 6538P (code AA)): 3.1 µg/mL
- MIC (Staphylococcus aureus CMX 553 (code FF)): 3.1 µg/mL
- MIC (Staphylococcus aureus CMX 642A (code DD)): 3.1 µg/mL
- MIC (Staphylococcus aureus NCTC10649M (code EE)): 3.1 µg/mL
- MIC (Staphylococcus epidermidis 3519 (code HH)): 3.1 µg/mL
- MIC (Streptococcus Pneumonia 5649 (code ZZA)): 2 µg/mL
- MIC (Streptococcus Pneumonia 5979 (code ZZ)): > 128 µg/mL
- MIC (Streptococcus Pneumonia ATCC6303 (code XX)): 1 µg/mL
- MIC (Streptococcus Pneumonia GYR 1171 (code YY)): 1 µg/mL
- MIC (Streptococcus agalactiae CMX 508 (code KK)): 0.39 µg/mL
- MIC (Streptococcus bovis A-5169 (code JJ)): 0.2 µg/mL
- MIC (Streptococcus pyogenes 930 (code MM)): > 100 µg/mL
- MIC (Streptococcus pyogenes EES61 (code LL)): 0.39 µg/mL
- MIC (Streptococcus pyogenes PIU 2548 (code NN)): 1.56 µg/mL

SMILES: CC[C@H]1OC(=O)[C@H](C)C(=O)[C@H](C)[C@@H](O[C@@H]2O[C@H](C)C[C@H](N(C)C)[C@H]2O)[C@@](C)(OCC#Cc2ccc3nc(C)ccc3c2)C[C@@H](C)C(=O)[C@H](C)[C@H]2NC(=O)O[C@@]21C [Example 255, Compound of Formula (IX): L is CO, T is NH, R is —CH2—C≡C-(2-methyl-6-quinolyl)]
- MIC (organism code AA): 0.1 µg/mL
- MIC (organism code BB): 0.2 µg/mL
- MIC (organism code CC): > 100 µg/mL
- MIC (organism code DD): 0.2 µg/mL
- MIC (organism code EE): 0.2 µg/mL
- MIC (organism code FF): 0.2 µg/mL
- MIC (organism code GG): > 100 µg/mL
- MIC (organism code HH): 0.1 µg/mL
- MIC (organism code II): 0.05 µg/mL
- MIC (organism code JJ): 0.02 µg/mL
- MIC (organism code KK): 0.02 µg/mL
- MIC (organism code LL): 0.02 µg/mL
- MIC (organism code MM): 50 µg/mL
- MIC (organism code NN): 0.2 µg/mL
- MIC (organism code OO): 0.05 µg/mL
- MIC (organism code PP): 0.2 µg/mL
- MIC (organism code QQ): 100 µg/mL
- MIC (organism code RR): 0.3 µg/mL
- MIC (organism code SS): > 100 µg/mL
- MIC (organism code TT): > 100 µg/mL
- MIC (organism code UU): 3.1 µg/mL
- MIC (organism code VV): 0.05 µg/mL
- MIC (organism code XX): 0.03 µg/mL
- MIC (organism code YY): 0.03 µg/mL
- MIC (organism code ZZ): 16 µg/mL
- MIC (organism code ZZA): 0.25 µg/mL

SMILES: CCC1OC(=O)C(C)C(=O)C(C)C(OC2OC(C)CC(N(C)C)C2O)C(C)(OCc2cccc(I)c2)CC(C)C(=O)C(C)C2NC(=O)OC12C (stereo not shown) [Example 285, Compound of Formula (IX): L is CO, T is NH2, R is —CH2-(3-iodophenyl)]
- MIC (organism code AA): 3.1 µg/mL
- MIC (organism code BB): 3.1 µg/mL
- MIC (organism code CC): > 100 µg/mL
- MIC (organism code DD): 3.1 µg/mL
- MIC (organism code EE): 3.1 µg/mL
- MIC (organism code FF): 3.1 µg/mL
- MIC (organism code GG): > 100 µg/mL
- MIC (organism code HH): 3.1 µg/mL
- MIC (organism code II): 0.39 µg/mL
- MIC (organism code JJ): 0.2 µg/mL
- MIC (organism code KK): 0.2 µg/mL
- MIC (organism code LL): 0.05 µg/mL
- MIC (organism code MM): 100 µg/mL
- MIC (organism code NN): 0.78 µg/mL
- MIC (organism code OO): 0.39 µg/mL
- MIC (organism code PP): 0.39 µg/mL
- MIC (organism code QQ): > 100 µg/mL
- MIC (organism code RR): 12.5 µg/mL
- MIC (organism code SS): > 100 µg/mL
- MIC (organism code TT): > 100 µg/mL
- MIC (organism code UU): 6.2 µg/mL
- MIC (organism code VV): 1.56 µg/mL
- MIC (organism code WW): > 128 µg/mL
- MIC (organism code XX): 0.25 µg/mL
- MIC (organism code YY): 0.25 µg/mL
- MIC (organism code ZZ): 64 µg/mL
- MIC (organism code ZZA): 1 µg/mL

SMILES: CCC1OC(=O)C(C)C(=O)C(C)C(OC2OC(C)CC(N(C)C)C2O)C(C)(OCC=Cc2ccc3cc(OCCBr)ccc3c2)CC(C)C(=O)C(C)C2NC(=O)OC12C (stereo not shown) [Example 288, Compound of Formula (IX): L is CO, T is NH2, R is —CH2CH═CH-(6-(2-bromoethoxy)-2-naphthyl)]
- MIC (organism code AA): 0.1 µg/mL
- MIC (organism code BB): 0.2 µg/mL
- MIC (organism code CC): > 100 µg/mL
- MIC (organism code DD): 0.39 µg/mL
- MIC (organism code EE): 0.39 µg/mL
- MIC (organism code FF): 0.39 µg/mL
- MIC (organism code GG): 100 µg/mL
- MIC (organism code HH): 0.39 µg/mL
- MIC (organism code II): 0.39 µg/mL
- MIC (organism code JJ): 0.01 µg/mL
- MIC (organism code KK): 0.02 µg/mL
- MIC (organism code LL): 0.1 µg/mL
- MIC (organism code MM): 12.5 µg/mL
- MIC (organism code NN): 0.39 µg/mL
- MIC (organism code OO): 0.02 µg/mL
- MIC (organism code PP): 0.39 µg/mL
- MIC (organism code QQ): > 100 µg/mL
- MIC (organism code RR): 3.1 µg/mL
- MIC (organism code SS): > 100 µg/mL
- MIC (organism code TT): > 100 µg/mL
- MIC (organism code UU): 0.39 µg/mL
- MIC (organism code VV): 0.39 µg/mL
- MIC (organism code WW): 8 µg/mL
- MIC (organism code XX): 0.125 µg/mL
- MIC (organism code YY): 0.125 µg/mL
- MIC (organism code ZZ): 16 µg/mL
- MIC (organism code ZZA): 1 µg/mL
